The target of the test is Replicase polyprotein 1a (Severe acute respiratory syndrome coronavirus 2, UniProt P0DTC1). Put plainly: Evaluation of the in Vitro Anti-Novel Coronavirus Mpro Protease Activity. As for the experimental part:
The compound was dissolved in DMSO, and diluted in a 3-fold gradient with Echo655 according to the concentration requirements to 10 concentration points, and duplicate tests were set at each concentration, and the diluted solution was added to a 384-well plate. Mpro protein and substrate were diluted with test buffer (100 mM NaCl, 20 mM Tris-HCl, 1 mM EDTA), and Mpro protein was added to the 384-well test plate, incubated with the compound for 30 min at room temperature, and then the substrate was added thereto, and the test concentration of Mpro protein was 25 nM, and the test concentration of substrate was 25 µM. After incubating for 60 minutes in a 30° C. constant temperature incubator, the fluorescence signal value of Ex/Em=340 nm/490 nm was detected by microplate reader. At the same time, the background well containing the substrate and compound but not containing Mpro protein was detected as control.

Regarding `N#C[C@H](C[C@@H]1CCNC1=O)NC(=O)[C@@H]1[C@H]2CC[C@H](C2)N1C(=O)[C@@H](NC(=O)C(F)(F)F)C1CCCCC1` [US20230312571, Compound 2], half-maximal inhibition (IC50) was put at 0.249 µM.

Values taken from BindingDB's records for patent US20230312571 (Fujian Akeylink Biotechnology, 2023).
